Paper PMC9982066, “Inhibition of Ehrlichia chaffeensis infection by cell-permeable macrocyclic peptides that bind type IV secretion effector Etf-1” (PNAS Nexus, 2023)
Starred links: 1 amine or outer side, 2 acyl side, 3 side chain; linkers in the order of their positions; H or OH if unused. Positions of bridges follow the written chain, without caps; N, C: chain ends. Non-standard residues stand in square brackets, D forms with d. Residues, ends and D or L forms follow the SMILES beside them. Trimesoyl = O=C(c1cc(C(=O)[*:2])cc(C(=O)[*:3])c1)[*:1]; Phe(4-Cl) = N[C@@H](Cc1ccc(Cl)cc1)C(=O)O; Phe(4-F) = N[C@@H](Cc1ccc(F)cc1)C(=O)O; d2Nal = N[C@H](Cc1ccc2ccccc2c1)C(=O)O; Orn = NCCC[C@H](N)C(=O)O; Dap = NC[C@H](N)C(=O)O

Legend:
BECN1 binding to Etf-1 = assay: streptavidin magnetic beads pull-down of BECN1 with biotin-Etf-1, Western blot; type: biochemical; details: 10 µM peptide; for BECN1/Etf-1 Ratio: band intensities, DMSO control set as 1, Fig. 8B
Description: Fig. 8.
Streptavidin magnetic beads (15 µL, Pierce, Rockford, IL, USA) were washed with 1 mL of Bind/Wash buffer (25 mM Tris, pH 7.4; 250 mM NaCl, 0.1% Tween 20), and incubated with 0.15 µg ([…] final concentration) of biotinylated full-length Etf-1 protein in bind/wash buffer at 4°C overnight with end-to-end rotation. Beads were washed three times with Bind/Wash buffer, then incubated with Etf-1-binding macrocyclic peptides (10 µM) or DMSO control in Bind/Wash buffer at room temperature for 2 h. […] Beads were washed three times, and proteins were eluted from the beads with 50 µL of 2× SDS-sample buffer. […] Reacting bands were visualized with enhanced chemiluminescence by incubating the membrane with LumiGLO chemiluminescent reagent (Thermo Fisher Scientific). Images were captured by Amersham Imager 680 (GE Healthcare) and densitometry analysis was performed using ImagQuaNT (GE Healthcare). In each specimen, band intensities were normalized against those of actin as the loading control, and the ratios of the treatment group to the control group were calculated with the value in the control groups arbitrarily set as 1.0.

Etf-1 [1] = molecular target: T1, Etf-1 (Ehrlichia chaffeensis, UniProt Q2GG12); assay: biochemical; type: binding; details: unlabeled competitor peptides vs FAM-B7-133-8
Description: (§1) Fig. 2. Determination of binding affinity of Etf-1-binding peptides by FP assay. […] FAM-labeled peptide (50 nM) was incubated with serially diluted Etf-1 (starting from 25–30 μM in PBS, pH 7.4, supplemented with 5 mM DTT and 0.01% Triton X-100) for 1 h at RT. FP values were measured on a Tecan Infinite M1000 Pro plate reader. Titration curves (n ≥ 3) were fitted using GraphPad Prism and analyzed with TraceDrawer to calculate dissociation constants (KD). […] Data were analyzed using GraphPad Prism and fitted to a four-parameter variable slope equation to determine IC50 values.
Serial dilutions of competitor peptide (0-20 μM) were prepared from DMSO stock solutions into PBS containing 0.01% Triton-X100 and 2 mM TCEP and added to aliquots of the equilibrated Etf-1/probe solution. After incubation for 1 h in the dark and with gentle mixing, 20 μL of each sample was transferred into 384-well black-on-black microplates and FP was measured using a TECAN Infinite M1000 plate reader. Data were analyzed using GraphPad PRISM ver. 8.0 and fit to a four-parameter variable slope equation to determine IC50 values. IC50 values reported are the mean ± SD of n = 2–4 independent experiments.

E. chaffeensis [2] = assay: morphological examination of E. chaffeensis infection of THP-1 cells by Diff-Quik staining; details: THP-1 cells, Fig. S4 (with Figs. 5, S3)
Description: Ehrlichia chaffeensis Arkansas strain ([43]) was cultured in THP-1 cells (ATCC, Manassas, VA, USA) in RPMI 1640 medium (Corning, Manassas, VA, USA) supplemented with 8% FBS (Atlanta Biologicals, Flowery Branch, GA, USA) and 4 mM L-glutamine (at 37°C under 5% CO2 in a humidified atmosphere. THP-1 cells were seeded at 1 × 10^5 cells/well (in 1.5-mL RPMI 1640 culture medium with 8% FBS, 4 mM L-Gln) in a 12-well plate, then infected with host cell-free E. chaffeensis at an MOI (multiplicity of infection, or numbers of bacteria per cell) of ∼30. Cells were cultured in a humidified incubator with 5% CO2 and 95% air. No antibiotic was used throughout the study. At 0.5 h post infection (pi), cells were incubated with 1–10 μM of peptides or with an equal volume of DMSO (solvent control, 2 μL per mL medium). At 2 days pi, cells were washed with 1 mL of PBS, and two drops of cells were cytospun onto glass slides by a Shandon Cytospin 4 cytocentrifuge (Thermo Fisher Scientific), then fixed and stained with HEMA 3 staining solutions (Thermo Fisher Scientific). Ehrlichia infection was observed and images were captured by a SPOT RT digital camera (Diagnostic Instruments, Sterling Heights, MI, USA) coupled to a Nikon Eclipse E400 microscope (Nikon, Melville, NY, USA).

E. chaffeensis [3] = assay: E. chaffeensis infection of THP-1 cells, qPCR of 16S rRNA gene normalized to human actin; type: cell-based, Ehrlichia chaffeensis; details: 10 μM, 2 days, vs DMSO control
Description: Therefore, we investigated whether these Etf-1-binding peptides can prevent the proliferation of E. chaffeensis inside host cells. THP-1 cells were infected with E. chaffeensis, then treated with the peptides at 30 min post infection (pi) for 2 days. Intracellular infection and proliferation of E. chaffeensis inside host THP-1 cells were assessed using quantitative PCR (qPCR) analysis based on E. chaffeensis 16S rRNA gene normalized by human actin (ACT) gene.
Fig. 5. Effects of Etf-1-binding peptides on E. chaffeensis infection of THP-1 cells. Ehrlichia chaffeensis-infected THP-1 cells at […] were incubated with 10 μM of Etf-1-binding macrocyclic peptide or DMSO control for 2 days.
No antibiotic was used throughout the study.
DNA was extracted from each sample using Qiagen blood mini kit according to the manufacturer's instructions (Qiagen, Valencia, CA, USA), and qPCR analysis was performed in an MX3000P qPCR instrument (Stratagene, San Diego, CA, USA) using SYBR Green Real-Time PCR Master Mix (Thermo Fisher Scientific) according to the manufacturer's instructions. Five-fold serial dilutions of the control group were used to generate a standard curve to calculate the relative copy numbers of E. chaffeensis 16S rRNA normalized against human actin genes using the MX3000P software from Stratagene as described previously ([18], [44]).

THP-1 cells = assay: CellTiter-Glo luminescent cell viability assay; details: 2-day treatment
Text: THP-1 (human promyelocytic leukemia) cells are widely used as E. chaffeensis infection studies of human monocytes in vitro, since initial characterization of infection ([31]).
Fig. 4. Cytotoxicity and proteolytic stability of Etf-1-binding peptides. (A) Effect of Etf-1-binding peptides on the viability of THP-1 cells as determined by CellTiter-Glo luminescent assay. Relative luminescence was plotted as function of the peptide concentration, with the cell viability of DMSO control group set as 100%. (B) Plot of the amount of intact peptide remaining as a function of the incubation time in 25% human serum. All values are normalized to that of peptide at time 0 (100%).
Cytotoxicity of Etf-1-binding peptides was examined by CellTiter-Glo luminescent cell viability assay (Promega, Madison, WI, USA). THP-1 cells were seeded in a transparent 96-well plate at a density of 5 × 10^3 cells/well (100 μL in each well) in RPMI-1640 containing 10% FBS and 1% antibiotics and cultured overnight. Etf-1-binding peptides were serially diluted in DPBS from a DMSO stock and added to the cells with the final concentration of 0–25 μM and a constant final concentration of 0.5% DMSO (v/v). After incubation at 37°C with 5% CO2 for 46 h, the plate was removed and pre-equilibrated to RT before the addition of 100 μL of the CellTiter-Glo 2.0 reagent to each well. The plate was incubated for 15 min on a rotary shaker in the dark, and the luminescence was detected (1-s integration time) on a Tecan Infinite M1000 Pro microplate reader. Relative luminescence was plotted as function of the peptide concentration, with the cell viability of DMSO control group set as 100%.

Etf-1 [4] = molecular target: T1, Etf-1; assay: FP assay of Etf-1 binding with FAM-labeled peptides
Description: The peptides were labeled at their C-terminus with carboxyfluorescein (FAM) through a β-Ala-β-Ala-Lys linker and evaluated for binding to Etf-1 by using a fluorescence polarization (FP) assay. […] This outcome is not unexpected, as screening OBOC libraries is often complicated by false positives, due to the presence of high ligand densities on library beads ([28]).
as §1
Etf-1 and macrocyclic peptides were serially diluted in PBS supplemented with 5 mM DTT and 0.01% Triton X-100 (v/v). FAM-labeled peptides (50 nM) were prepared from a 10-μM DMSO stock and incubated with serially diluted Etf-1 for 1 h at room temperature (RT). Twenty microliters of the solutions were transferred to a black 384-well plate (Greiner Bio-One) and FP values were measured on a Tecan Infinite M1000 Pro plate reader with excitation and emission wavelengths at 470 and 535 nm, respectively. Titration curves (n ≥ 3) were fitted using GraphPad Prism v8.0 (GraphPad, La Jolla, CA, USA), and analyzed with TraceDrawer software v1.8 (Ridgeview Instruments AB, Uppsala, Sweden) to calculate the dissociation constant (KD, in nM).

T1 sequence (Q2GG12 entry or part of it): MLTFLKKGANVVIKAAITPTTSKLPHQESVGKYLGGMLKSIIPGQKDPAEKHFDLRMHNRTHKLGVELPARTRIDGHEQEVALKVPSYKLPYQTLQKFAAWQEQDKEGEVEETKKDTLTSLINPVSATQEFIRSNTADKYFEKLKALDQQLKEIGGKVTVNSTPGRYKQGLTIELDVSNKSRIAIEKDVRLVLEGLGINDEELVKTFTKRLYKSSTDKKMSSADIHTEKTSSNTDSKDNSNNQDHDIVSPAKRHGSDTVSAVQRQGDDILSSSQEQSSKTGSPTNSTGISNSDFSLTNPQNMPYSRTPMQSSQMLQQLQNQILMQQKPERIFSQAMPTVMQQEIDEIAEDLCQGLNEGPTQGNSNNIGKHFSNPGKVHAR

CC(C)C[C@H]1NC(=O)[C@H](Cc2ccc(F)cc2)NC(=O)[C@@H](Cc2ccc(O)cc2)NC(=O)[C@@H](CC(C)C)NC(=O)[C@@H](C(C)C)NC(=O)[C@H](Cc2ccc(O)cc2)NC(=O)c2cc3cc(c2)C(=O)NC[C@H](NC1=O)C(=O)N[C@@H](Cc1ccc(Cl)cc1)C(=O)N[C@H](Cc1ccc2ccccc2c1)C(=O)N[C@H](CCCNC(=N)N)C(=O)N[C@@H](CCCNC(=N)N)C(=O)N[C@H](CCCNC(=N)N)C(=O)N[C@@H](CCCNC(=N)N)C(=O)N[C@H](C(N)=O)CNC3=O [Peptide B7-133-9, TMA-Tyr-val-leu-tyr-Fpa-leu-Dap-4-ClPhe-nal-arg-Arg-arg-Arg-Dap] (Y[dV][dL][dY][Phe(4-F)][dL][Dap][Phe(4-Cl)][d2Nal][dR]R[dR]R[Dap]-NH2; linker N-7-14 via Trimesoyl)
BECN1/Etf-1 Ratio (BECN1 binding to Etf-1): 1.19
competition for Etf-1 binding (Etf-1 [1]): Competition for Etf-1 binding was observed
E. chaffeensis infection (numbers and sizes of morulae) (E. chaffeensis [2]): only slightly reduced

CC(C)C[C@H]1NC(=O)[C@H](CO)NC(=O)[C@H]2CCCN2C(=O)[C@H](CCC(N)=O)NC(=O)[C@H](Cc2c[nH]cn2)NC(=O)[C@H](Cc2ccc(O)cc2)NC(=O)c2cc3cc(c2)C(=O)NC[C@H](NC1=O)C(=O)N[C@@H](Cc1ccc(Cl)cc1)C(=O)N[C@H](Cc1ccc2ccccc2c1)C(=O)N[C@H](CCCNC(=N)N)C(=O)N[C@@H](CCCNC(=N)N)C(=O)N[C@H](CCCNC(=N)N)C(=O)N[C@@H](CCCNC(=N)N)C(=O)N[C@H](C(N)=O)CNC3=O [Peptide B7-16, TMA-Tyr-His-Gln-pro-Ser-leu-Dap-4-ClPhe-nal-arg-Arg-arg-Arg-Dap] (YHQ[dP]S[dL][Dap][Phe(4-Cl)][d2Nal][dR]R[dR]R[Dap]-NH2; linker N-7-14 via Trimesoyl)
inhibition of E. chaffeensis infection (E. chaffeensis [3]): significantly inhibited
cell viability (THP-1 cells; 20 μM): slightly reduced the cell viability
cytotoxicity (THP-1 cells; up to 10 μM): no cytotoxicity
E. chaffeensis infection (numbers and sizes of morulae) (E. chaffeensis [2]): significantly inhibited
Kd (Etf-1 [4]): 2000 ± 200 nM

CC(C)C[C@H]1NC(=O)[C@H](Cc2ccc(F)cc2)NC(=O)[C@H](CCCN)NC(=O)[C@H](CC(=O)O)NC(=O)[C@H](CC(=O)O)NC(=O)[C@@H](C(C)C)NC(=O)[C@H](Cc2ccc(O)cc2)NC(=O)c2cc3cc(c2)C(=O)NC[C@H](NC1=O)C(=O)N[C@@H](Cc1ccc(Cl)cc1)C(=O)N[C@H](Cc1ccc2ccccc2c1)C(=O)N[C@H](CCCNC(=N)N)C(=O)N[C@@H](CCCNC(=N)N)C(=O)N[C@H](CCCNC(=N)N)C(=O)N[C@@H](CCCNC(=N)N)C(=O)N[C@H](C(N)=O)CNC3=O [Peptide B7-95-2, TMA-Tyr-val-Asp-Asp-Orn-Fpa-leu-Dap-4-ClPhe-nal-arg-Arg-arg-Arg-Dap] (Y[dV]DD[Orn][Phe(4-F)][dL][Dap][Phe(4-Cl)][d2Nal][dR]R[dR]R[Dap]-NH2; linker N-8-15 via Trimesoyl)
inhibition of E. chaffeensis infection (E. chaffeensis [3]): significantly inhibited
competition for Etf-1 binding (Etf-1 [1]): Competition for Etf-1 binding was observed
E. chaffeensis infection (numbers and sizes of morulae) (E. chaffeensis [2]): significantly inhibited
Kd (Etf-1 [4]): 740 ± 60 nM

CC(C)[C@H]1NC(=O)[C@@H](CCC(=O)O)NC(=O)c2cc3cc(c2)C(=O)NC[C@H](NC(=O)CNC(=O)[C@H](Cc2c[nH]c4ccccc24)NC(=O)[C@H](Cc2ccc(O)cc2)NC1=O)C(=O)N[C@@H](Cc1ccccc1)C(=O)N[C@H](Cc1ccc2ccccc2c1)C(=O)N[C@H](CCCNC(=N)N)C(=O)N[C@@H](CCCNC(=N)N)C(=O)N[C@H](CCCNC(=N)N)C(=O)N[C@@H](CCCNC(=N)N)C(=O)N[C@H](C(N)=O)CNC3=O [Peptide C8, TMA-glu-val-Tyr-Trp-Gly-Dap-Phe-nal-arg-Arg-arg-Arg-Dap] ([dE][dV]YWG[Dap]F[d2Nal][dR]R[dR]R[Dap]-NH2; linker N-6-13 via Trimesoyl)
inhibition of E. chaffeensis infection (E. chaffeensis [3]): significantly inhibited
disruption of BECN1 binding to Etf-1 (BECN1 binding to Etf-1; compared to DMSO control): disrupted BECN1 binding to Etf-1
BECN1/Etf-1 Ratio (BECN1 binding to Etf-1): 0.14
E. chaffeensis infection (numbers and sizes of morulae) (E. chaffeensis [2]): significantly inhibited
Kd (Etf-1 [4]): 5000 ± 1200 nM

TMA-Tyr-Phg-Orn-ala-Ieu-Orn-leu-Dap-4-ClPhe-nal-arg-Arg-arg-Arg-Dap [Peptide B7-131-3]
competition for Etf-1 binding (Etf-1 [1]): Competition for Etf-1 binding was observed
